Laboratory results: article PMC9080233, “Synthesis and biological evaluation of novel quinolone derivatives dual targeting histone deacetylase and tubulin polymerization as antiproliferative agents” (RSC Advances, 2018)

Legend:
healthy MCF-10A cells = assay: Toxicity to healthy cells, CCK-8 assay, MCF-10A; assay type: cell-based; conditions: Homo sapiens, MCF-10A; healthy cells, CCK-8, 72 hours; >100 = not determinable up to highest concentrations tested
[1] = test system: human lung adenocarcinoma cells A549; assay: Antiproliferative activity, CCK-8 assay, A549; assay type: cell-based; conditions: CCK-8, 72 hours, mean ± SD
liver cancer cells HepG2 = assay: Antiproliferative activity, CCK-8 assay, HepG2; assay type: cell-based; conditions: Homo sapiens, CCK-8, 72 hours, mean ± SD
[2] = test system: five cancer cells, A549, HepG2, MCF-7, PC-3, HeLa; assay: Antiproliferative activity, CCK-8 assay, statements on all five cancer cell lines; assay type: cell-based, human
Procedure: (§1) Antitumor activities in vitro of synthetic compounds were measured using CCK-8 Assay Kit (BPS Bioscience, CA) according to the manufacturer's protocol. Cells were plated into 96-well plates with appropriate test compounds for 72 hours. Control cells were treated with serum free medium. Then CCK-8 solution was added to each well to determine cell viability. The IC50 values were calculated according to the dose-dependent curves (Origin software). IC50 values were determined using nonlinear regression analysis.

[3] = test system: human cervical carcinoma cells HeLa; assay: Antiproliferative activity, CCK-8 assay, HeLa; assay type: cell-based; conditions: CCK-8, 72 hours, mean ± SD, read-out: IC50 HeLa
Procedure: as §1

[4] = test system: breast cancer cells MCF-7; assay: Antiproliferative activity, CCK-8 assay, MCF-7; assay type: cell-based; conditions: Homo sapiens, MCF7; CCK-8, 72 hours; mean ± SD
[5] = test system: prostate cancer cells PC-3; assay: Antiproliferative activity, CCK-8 assay, PC-3; assay type: cell-based; conditions: Homo sapiens; CCK-8, 72 hours; mean ± SD
human recombinant HDAC1 = biological target: T1, human recombinant HDAC1 (Homo sapiens, UniProt Q13547); assay: HDAC activity assay (fluorogenic HDAC assay kit), HDAC1; assay type: biochemical; conditions: human recombinant HDAC1, 37 °C, 30 min
T1 construct: purchased BPS Bioscience, CA

tubulin = assay: Tubulin polymerization assay; assay type: biochemical; conditions: in words
human recombinant HDAC2 = biological target: T2, human recombinant HDAC2 (Homo sapiens, UniProt Q92769); assay: HDAC activity assay (fluorogenic HDAC assay kit), HDAC2; assay type: biochemical; conditions: human recombinant HDAC2, 37 °C, 30 min
T2 construct: purchased BPS Bioscience, CA

human recombinant HDAC6 = biological target: T3, human recombinant HDAC6 (Homo sapiens, UniProt Q9UBN7); assay: HDAC activity assay (fluorogenic HDAC assay kit), HDAC6; assay type: biochemical; conditions: for IC50: human recombinant HDAC6, 37 °C, 30 min; for Selectivity index HDAC6/1: ratio of IC50 HDAC1 to IC50 HDAC6; for Selectivity index HDAC6/2: ratio of IC50 HDAC2 to IC50 HDAC6;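 as to all read-outs here: underlying HDAC activity read as fluorescence, excitation 350 nm and emission 440 nm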
T3 construct: purchased BPS Bioscience, CA
T3 sequence (Q9UBN7 1-1215): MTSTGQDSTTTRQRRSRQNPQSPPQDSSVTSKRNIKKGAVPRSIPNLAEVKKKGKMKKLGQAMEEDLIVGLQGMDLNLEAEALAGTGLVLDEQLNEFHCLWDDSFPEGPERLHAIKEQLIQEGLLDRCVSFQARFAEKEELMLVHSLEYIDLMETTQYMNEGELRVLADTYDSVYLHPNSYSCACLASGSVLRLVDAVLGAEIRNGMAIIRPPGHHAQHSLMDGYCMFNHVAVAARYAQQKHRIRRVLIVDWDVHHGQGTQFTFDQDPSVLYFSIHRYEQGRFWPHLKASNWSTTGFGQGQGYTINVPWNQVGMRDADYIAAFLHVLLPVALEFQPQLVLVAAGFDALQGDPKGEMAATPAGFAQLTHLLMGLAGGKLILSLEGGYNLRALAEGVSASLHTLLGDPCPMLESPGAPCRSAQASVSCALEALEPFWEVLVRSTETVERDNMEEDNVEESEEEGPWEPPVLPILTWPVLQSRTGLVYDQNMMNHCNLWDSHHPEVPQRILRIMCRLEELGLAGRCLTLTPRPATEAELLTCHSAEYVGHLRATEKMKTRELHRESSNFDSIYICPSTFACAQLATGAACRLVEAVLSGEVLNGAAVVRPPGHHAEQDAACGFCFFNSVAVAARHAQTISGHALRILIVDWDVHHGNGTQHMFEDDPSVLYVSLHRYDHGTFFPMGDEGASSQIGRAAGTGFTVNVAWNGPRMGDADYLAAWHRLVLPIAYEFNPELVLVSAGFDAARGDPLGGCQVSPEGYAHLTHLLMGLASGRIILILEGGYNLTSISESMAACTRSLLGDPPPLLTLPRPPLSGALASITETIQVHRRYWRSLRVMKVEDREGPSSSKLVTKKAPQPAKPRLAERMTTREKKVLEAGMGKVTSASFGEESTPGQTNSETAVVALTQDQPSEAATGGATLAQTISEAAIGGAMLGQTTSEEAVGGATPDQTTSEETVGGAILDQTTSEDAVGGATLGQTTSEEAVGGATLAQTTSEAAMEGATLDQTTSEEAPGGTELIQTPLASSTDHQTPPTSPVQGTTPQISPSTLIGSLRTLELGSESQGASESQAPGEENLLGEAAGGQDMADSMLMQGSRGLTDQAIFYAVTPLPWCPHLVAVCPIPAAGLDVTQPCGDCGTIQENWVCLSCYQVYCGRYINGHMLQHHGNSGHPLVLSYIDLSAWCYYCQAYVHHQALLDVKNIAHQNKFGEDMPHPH

T1 sequence (Q13547 whole entry): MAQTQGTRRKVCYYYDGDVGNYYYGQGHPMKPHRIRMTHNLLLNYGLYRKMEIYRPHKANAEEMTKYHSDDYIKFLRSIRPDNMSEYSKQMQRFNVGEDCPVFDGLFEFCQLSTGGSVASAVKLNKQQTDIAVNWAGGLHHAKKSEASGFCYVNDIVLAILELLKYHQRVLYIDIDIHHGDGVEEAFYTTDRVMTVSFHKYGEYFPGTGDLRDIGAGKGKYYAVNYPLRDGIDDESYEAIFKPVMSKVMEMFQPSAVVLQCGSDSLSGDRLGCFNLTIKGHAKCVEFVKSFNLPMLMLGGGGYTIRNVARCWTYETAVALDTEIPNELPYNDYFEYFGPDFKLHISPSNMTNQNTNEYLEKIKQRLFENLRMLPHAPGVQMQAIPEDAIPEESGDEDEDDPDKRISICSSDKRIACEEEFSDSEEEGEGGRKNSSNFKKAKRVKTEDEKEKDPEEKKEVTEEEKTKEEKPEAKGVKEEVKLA
T2 sequence (Q92769 whole entry): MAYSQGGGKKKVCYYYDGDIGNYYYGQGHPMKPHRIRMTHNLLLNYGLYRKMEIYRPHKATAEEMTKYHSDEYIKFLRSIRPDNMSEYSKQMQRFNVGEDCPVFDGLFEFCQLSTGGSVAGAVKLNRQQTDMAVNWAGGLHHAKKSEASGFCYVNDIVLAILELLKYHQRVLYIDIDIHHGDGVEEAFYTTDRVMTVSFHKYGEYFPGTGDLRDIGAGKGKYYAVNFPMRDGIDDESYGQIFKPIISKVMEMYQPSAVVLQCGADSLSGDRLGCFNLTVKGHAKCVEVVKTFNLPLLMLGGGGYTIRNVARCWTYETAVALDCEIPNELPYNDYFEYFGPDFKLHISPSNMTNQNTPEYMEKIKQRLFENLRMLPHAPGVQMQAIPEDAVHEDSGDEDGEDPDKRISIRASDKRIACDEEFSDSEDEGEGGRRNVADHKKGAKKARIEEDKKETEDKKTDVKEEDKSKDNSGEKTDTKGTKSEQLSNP
Sequence of tubulin (P02550 whole entry): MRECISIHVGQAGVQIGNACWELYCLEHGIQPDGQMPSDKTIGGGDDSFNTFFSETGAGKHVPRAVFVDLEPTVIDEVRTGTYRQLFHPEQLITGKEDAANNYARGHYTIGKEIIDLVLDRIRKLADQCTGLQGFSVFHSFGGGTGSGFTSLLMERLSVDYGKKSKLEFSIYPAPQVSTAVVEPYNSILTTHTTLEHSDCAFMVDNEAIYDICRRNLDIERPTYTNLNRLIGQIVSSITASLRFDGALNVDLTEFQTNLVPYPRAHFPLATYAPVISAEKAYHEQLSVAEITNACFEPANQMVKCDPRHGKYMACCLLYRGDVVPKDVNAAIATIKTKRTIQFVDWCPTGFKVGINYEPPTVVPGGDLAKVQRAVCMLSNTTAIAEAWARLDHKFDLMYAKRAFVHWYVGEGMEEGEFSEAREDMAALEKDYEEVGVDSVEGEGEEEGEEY
Sequence of tubulin (P02554 whole entry, further chain): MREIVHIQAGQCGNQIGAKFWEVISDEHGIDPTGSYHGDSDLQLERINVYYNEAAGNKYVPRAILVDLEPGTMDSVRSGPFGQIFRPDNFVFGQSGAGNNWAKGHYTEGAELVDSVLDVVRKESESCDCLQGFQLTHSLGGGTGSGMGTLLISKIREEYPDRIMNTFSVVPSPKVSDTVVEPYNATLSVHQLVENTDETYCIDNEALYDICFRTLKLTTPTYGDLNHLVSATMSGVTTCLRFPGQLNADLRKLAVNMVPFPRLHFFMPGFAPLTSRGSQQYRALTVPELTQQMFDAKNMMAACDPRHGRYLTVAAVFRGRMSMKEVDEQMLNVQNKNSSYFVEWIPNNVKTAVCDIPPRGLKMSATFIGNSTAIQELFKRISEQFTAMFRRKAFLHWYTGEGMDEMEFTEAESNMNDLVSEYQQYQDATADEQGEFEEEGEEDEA

IC50 ([2]; Homo sapiens, A549, HepG2, MCF-7, PC-3, HeLa, read-out: IC50 proliferation of the five cancer cells) [µM] | SMILES | IC50 (healthy MCF-10A cells) [µM] | IC50 [1] [µM] | IC50 (liver cancer cells HepG2) [µM] | IC50 [3] [µM] | IC50 [4] [µM] | IC50 [5] [µM] | IC50 (human recombinant HDAC1) [µM] | tubulin polymerization inhibition compared with reference compound (tubulin) | IC50 (human recombinant HDAC2) [µM] | melting point [°C] | IC50 (human recombinant HDAC6) [µM] | Selectivity index HDAC6/1 (human recombinant HDAC6) | Selectivity index HDAC6/2 (human recombinant HDAC6) | fold more potent than levofloxacin, antiproliferative activity ([2]; against all cancer cells)
> 70 | C[C@H]1COc2c(N3CCN(C)CC3)c(F)cc3c(=O)c(C(=O)O)cn1c23 [Levofloxacin, levofloxacin, reference compound] | > 100 | 76.3 ± 6.51 | > 100 | 71.1 ± 4.98 | 64.2 ± 5.67 | > 100 | – | – | – | – | – | – | – | –
– | C[C@H]1COc2c(N3CCN(C)CC3)c(F)cc3c(=O)c(C(=O)NCc4cn(CCCCCCC(=O)O)nn4)cn1c23 [Compound 7b, (S)-7-(4-((9-fluoro-3-methyl-10-(4-methylpiperazin-1-yl)-7-oxo-3,7-dihydro-2H-[1,4]oxazino[2,3,4-ij]quinoline-6-carboxamido)methyl)-1H-1,2,3-triazol-1-yl)heptanoic acid] | > 100 | 9.3 ± 0.82 | 9.9 ± 0.62 | 8.4 ± 0.62 | 7.8 ± 0.71 | 11.1 ± 1.16 | 2.1 ± 0.37 | equipotent to reference compound CA-4 | 4.6 ± 0.62 | 187 to 190 | 1.1 ± 0.28 | 1.9 | 4.2 | –
– | C[C@H]1COc2c(N3CCN(C)CC3)c(F)cc3c(=O)c(C(=O)OCc4cn(CCCCCCC(=O)NO)nn4)cn1c23 [Compound 8b, (S)-(1-(7-(hydroxyamino)-7-oxoheptyl)-1H-1,2,3-triazol-4-yl)methyl-9-fluoro-3-methyl-10-(4-methylpiperazin-1-yl)-7-oxo-3,7-dihydro-2H-[1,4]oxazino[2,3,4-ij]quinoline-6-carboxylate] | > 100 | 3.5 ± 0.17 | 5.2 ± 0.56 | 2.7 ± 0.17 | 0.8 ± 0.15 | 8.5 ± 0.79 | 0.067 ± 0.019 | equipotent to reference compound CA-4 | 0.082 ± 0.015 | – | 0.03 ± 0.019 | 2.2 | 2.7 | –
– | C[C@H]1COc2c(N3CCN(C)CC3)c(F)cc3c(=O)c(C(=O)NCc4cn(CCCCCCC(=O)NO)nn4)cn1c23 [Compound 9b, (S)-9-Fluoro-N-((1-(7-(hydroxyamino)-7-oxoheptyl)-1H-1,2,3-triazol-4-yl)methyl)-3-methyl-10-(4methylpiperazin-1-yl)-7-oxo-3,7-dihydro-2H-[1,4]oxazino[2,3,4-ij]quinoline-6-carboxamide] | > 100 | 2.1 ± 0.26 | 2.3 ± 0.31 | 1.1 ± 0.15 | 0.3 ± 0.14 | 4.9 ± 0.43 | 0.029 ± 0.018 | equipotent to reference compound CA-4 | 0.041 ± 0.014 | – | 0.021 ± 0.007 | 1.4 | 2.0 | over 20 fold
– | C[C@H]1COc2c(N3CCN(C)CC3)c(F)cc3c(=O)c(C(=O)NCc4cn(CCCCCC(=O)NO)nn4)cn1c23 [Compound 9a, (S)-9-Fluoro-N-((1-(6-(hydroxyamino)-6-oxohexyl)-1H-1,2,3-triazol-4-yl)methyl)-3-methyl-10-(4-methylpiperazin-1-yl)-7-oxo-3,7-dihydro-2H-[1,4]oxazino[2,3,4-ij]quinoline-6-carboxamide] | > 100 | 5.6 ± 0.59 | 6.6 ± 0.78 | 5.2 ± 0.82 | 1.1 ± 0.26 | 9.6 ± 1.05 | 0.073 ± 0.045 | equipotent to reference compound CA-4 | – | – | 0.049 ± 0.023 | 1.5 | 1.7 | –
– | C[C@H]1COc2c(N3CCN(C)CC3)c(F)cc3c(=O)c(C(=O)OCc4cn(CCCCCCC(=O)O)nn4)cn1c23 [Compound 6b, (S)-7-(4-(((9-fluoro-3-methyl-10-(4-methylpiperazin-1-yl)-7-oxo-3,7-dihydro-2H-[1,4]oxazino[2,3,4-ij]quinoline-6-carbonyl)oxy)methyl)-1H-1,2,3-triazol-1-yl)heptanoic acid] | > 100 | 10.7 ± 1.08 | 10.5 ± 1.17 | 9.7 ± 0.83 | 8.9 ± 0.54 | 12.9 ± 1.25 | 5.7 ± 0.71 | – | 6.2 ± 0.92 | 183 to 185 | 1.4 ± 0.35 | 4.1 | 4.4 | –
– | C[C@H]1COc2c(N3CCN(C)CC3)c(F)cc3c(=O)c(C(=O)NCc4cn(CCCCCC(=O)O)nn4)cn1c23 [Compound 7a, (S)-6-(4-((9-fluoro-3-methyl-10-(4-methylpiperazin-1-yl)-7-oxo-3,7-dihydro-2H-[1,4]oxazino[2,3,4-ij]quinoline-6-carboxamido)methyl)-1H-1,2,3-triazol-1-yl)hexanoic acid] | > 100 | 12.8 ± 1.33 | 14.8 ± 1.27 | 13.5 ± 1.31 | 9.7 ± 1.04 | 15.8 ± 1.48 | 4.6 ± 0.52 | – | 7.3 ± 0.93 | 179 to 182 | 1.9 ± 0.47 | 2.4 | 3.8 | –
– | C[C@H]1COc2c(N3CCN(C)CC3)c(F)cc3c(=O)c(C(=O)NCc4cn(CCCCCCCC(=O)O)nn4)cn1c23 [Compound 7c, (S)-8-(4-((9-fluoro-3-methyl-10-(4-methylpiperazin-1-yl)-7-oxo-3,7-dihydro-2H-[1,4]oxazino[2,3,4-ij]quinoline-6-carboxamido)methyl)-1H-1,2,3-triazol-1-yl)octanoic acid] | > 100 | 11.9 ± 1.06 | 11.3 ± 1.24 | 10.6 ± 0.24 | 12.7 ± 1.18 | 13.6 ± 1.29 | 3.8 ± 0.46 | – | 6.9 ± 0.55 | 203 to 205 | 2.7 ± 0.36 | 1.4 | 2.6 | –
